# According to patent EP4596574A1, “GLP-1/GCG/GIP TRIPLE-RECEPTOR AGONIST AND USE THEREOF” (Sunshine Lake Pharma Co., Ltd., priority 2022, dated 2024):
# Marks after values point to notes of the source that are not given here.
# What was measured:
# [1] = molecular target: T1, GLP-1R (Homo sapiens, UniProt P43220); assay: In vitro cell activity, cAMP production in HEK293 cells expressing GLP-1R; type: cell-based
# T1 construct: expressed in transfected cells; host or cells: HEK293 (HEK293-GLP-1R)
# Procedure, shortened: (§1)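 Assay format: cells at 4×10^5 cells/mL, cAMP sensed by d2/cryptate FRET pair, dual-wavelength read at 665 and 620 nm. Potency expressed as EC50 from nonlinear fitting.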
# [2] = molecular target: T2, GCGR (Homo sapiens, UniProt P47871); assay: In vitro cell activity, cAMP production in HEK293 cells expressing GCGR; type: cell-based
# T2 construct: expressed in transfected cells; host or cells: HEK293 (HEK293-GCGR)
# Procedure, shortened: as §1
# [3] = molecular target: T3, GIPR (Homo sapiens, UniProt P48546); assay: In vitro cell activity, cAMP production in HEK293 cells expressing GIPR; type: cell-based
# T3 construct: expressed in transfected cells; host or cells: HEK293 (HEK293-GIPR)
# T3 sequence (P48546 22-466): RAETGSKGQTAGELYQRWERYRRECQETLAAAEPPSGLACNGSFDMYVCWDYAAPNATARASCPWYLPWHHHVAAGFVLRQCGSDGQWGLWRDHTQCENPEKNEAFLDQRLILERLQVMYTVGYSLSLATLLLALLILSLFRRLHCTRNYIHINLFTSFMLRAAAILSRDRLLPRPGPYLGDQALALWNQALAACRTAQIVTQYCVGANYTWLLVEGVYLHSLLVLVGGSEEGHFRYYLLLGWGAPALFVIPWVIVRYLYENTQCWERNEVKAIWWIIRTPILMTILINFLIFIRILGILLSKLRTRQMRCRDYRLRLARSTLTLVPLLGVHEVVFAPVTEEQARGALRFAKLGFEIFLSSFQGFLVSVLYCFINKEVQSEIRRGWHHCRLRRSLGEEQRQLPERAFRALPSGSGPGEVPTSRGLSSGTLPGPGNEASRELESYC
# Procedure, shortened: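 cAMP accumulation is quantified by homogeneous TR-FRET (cAMP-d2 plus anti-cAMP cryptate) in GIPR-expressing HEK293 cells seeded from a 4×10^5 cells/mL suspension and treated with compound. The signal ratio is plotted against concentration and fitted to a four-parameter curve to give EC50.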
# [4] = In vivo efficacy evaluation in db/db mouse model (blood glucose); parameters: species or system db/db mice
# Experimental: Blood glucose was tested before each administration.
# [5] = Long-term repeated administration in diet-induced obese C57BL/6 mice (DIO); type: in vivo, C57/BL6 mice
# [6] = 10 nmol/kg s.c. once every 3 days, D7
# [7] = 10 nmol/kg s.c. once every 3 days, D10
# [8] = 10 nmol/kg s.c. once every 3 days, D13
# [9] = 10 nmol/kg s.c. once every 3 days, D16
# [10] = 10 nmol/kg s.c. once every 3 days, D19
# [11] = 10 nmol/kg s.c. once every 3 days, D22
# [12] = 10 nmol/kg s.c. once every 3 days, D25
# [13] = 10 nmol/kg s.c. once every 3 days, D28
# [14] = after 4 weeks of administration
# [15] = after 4 weeks of administration, same dose
# [16] = long-term administration 10 nmol/kg, 72 h after the last administration
# [17] = long-term administration 10 nmol/kg, blood biochemical index
# T2 sequence (P47871 26-477, species assumed): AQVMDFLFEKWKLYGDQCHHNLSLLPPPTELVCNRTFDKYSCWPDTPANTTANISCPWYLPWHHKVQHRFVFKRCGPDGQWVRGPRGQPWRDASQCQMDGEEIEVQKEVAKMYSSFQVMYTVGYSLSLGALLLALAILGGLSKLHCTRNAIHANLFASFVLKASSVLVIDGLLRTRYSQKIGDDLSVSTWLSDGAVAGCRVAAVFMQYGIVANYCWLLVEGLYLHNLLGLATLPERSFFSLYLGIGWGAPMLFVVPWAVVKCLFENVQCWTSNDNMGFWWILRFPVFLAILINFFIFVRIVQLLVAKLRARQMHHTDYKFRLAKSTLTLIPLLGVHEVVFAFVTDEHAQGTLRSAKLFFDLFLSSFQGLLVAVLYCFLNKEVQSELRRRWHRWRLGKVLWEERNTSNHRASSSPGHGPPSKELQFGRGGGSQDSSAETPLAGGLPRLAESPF
# T1 sequence (P43220 24-463, species assumed): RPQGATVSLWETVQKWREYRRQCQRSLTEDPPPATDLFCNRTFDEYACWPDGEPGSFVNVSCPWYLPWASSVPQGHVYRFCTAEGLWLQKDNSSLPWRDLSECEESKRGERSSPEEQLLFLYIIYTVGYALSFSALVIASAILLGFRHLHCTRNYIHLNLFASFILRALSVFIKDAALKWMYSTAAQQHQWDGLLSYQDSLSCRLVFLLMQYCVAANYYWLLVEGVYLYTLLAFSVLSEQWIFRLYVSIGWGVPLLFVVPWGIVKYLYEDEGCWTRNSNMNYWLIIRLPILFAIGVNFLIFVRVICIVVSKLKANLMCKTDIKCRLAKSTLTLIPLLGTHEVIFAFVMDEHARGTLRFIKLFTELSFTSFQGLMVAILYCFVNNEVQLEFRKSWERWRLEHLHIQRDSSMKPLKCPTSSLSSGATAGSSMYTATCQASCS
compound,measurement,setting,value
CC[C@H](C)[C@H](NC(=O)[C@H](Cc1ccccc1)NC(=O)[C@H](CCC(=O)O)NC(=O)[C@H](CCCNC(=N)N)NC(=O)[C@H](CCC(N)=O)NC(=O)[C@H](CCCNC(=N)N)NC(=O)[C@H](CCCCNC(=O)COCCOCCNC(=O)CC[C@H](NC(=O)CCCCCCCCCCCCCCCCC(=O)O)C(=O)O)NC(=O)[C@H](CCC(=O)O)NC(=O)[C@H](CC(=O)O)NC(=O)[C@H](CC(C)C)NC(=O)[C@H](CC(C)C)NC(=O)[C@@H](NC(=O)[C@H](CO)NC(=O)[C@H](Cc1ccc(O)cc1)NC(=O)[C@H](CC(=O)O)NC(=O)[C@H](CO)NC(=O)[C@@H](NC(=O)[C@](C)(Cc1ccccc1F)NC(=O)[C@@H](NC(=O)CNC(=O)[C@H](Cc1c[nH]cn1)NC(=O)C(C)(C)NC(=O)[C@@H](N)Cc1ccc(O)cc1)[C@@H](C)O)[C@@H](C)O)[C@@H](C)CC)C(=O)N[C@@H](CCC(=O)O)C(=O)N[C@@H](Cc1c[nH]c2ccccc12)C(=O)N[C@@H](CC(C)C)C(=O)N[C@@H](CC(C)C)C(=O)N[C@@H](C)C(=O)NCC(=O)NCC(=O)N1CCC[C@H]1C(=O)N[C@@H](CO)C(=O)N[C@@H](CO)C(=O)NCC(=O)N[C@@H](C)C(=O)N1CCC[C@H]1C(=O)N1CCC[C@H]1C(=O)N1CCC[C@H]1C(=O)N[C@@H](CO)C(=O)O [HEC-PT77],EC50,[1],0.0656 nM
same,EC50,[2],0.144 nM
same,EC50,[3],0.0227 nM
same,blood glucose after administration,"[4]; db/db mice, 10 nmol/kg",significantly reduce blood glucose
same,Random blood glucose (mM) D0,"[4]; db/db mice, 10 nmol/kg s.c. once every three days, D0 (before first dose)",26.6 ± 4.2 mM
same,Random blood glucose (mM) D3,"[4]; db/db mice, 10 nmol/kg s.c. once every three days, D3",15.8 ± 4.0 mM
same,Random blood glucose (mM) D4,"[4]; db/db mice, 10 nmol/kg s.c. once every three days, D4",17.8 ± 5.9 mM
same,Random blood glucose (mM) D5,"[4]; db/db mice, 10 nmol/kg s.c. once every three days, D5",21.5 ± 5.6 mM
same,Random blood glucose (mM) D6,"[4]; db/db mice, 10 nmol/kg s.c. once every three days, D6",24.1 ± 4.6 mM
same,Random blood glucose (mM) D7,"[4]; db/db mice, 10 nmol/kg s.c. once every three days, D7",21.9 ± 3.9 mM
same,Random blood glucose (mM) D10,"[4]; db/db mice, 10 nmol/kg s.c. once every three days, D10",13.4 ± 5.4 mM
same,Random blood glucose (mM) D13,"[4]; db/db mice, 10 nmol/kg s.c. once every three days, D13",15.7 ± 5.4 mM
same,Random blood glucose (mM) D16,"[4]; db/db mice, 10 nmol/kg s.c. once every three days, D16",12.7 ± 6.1 mM
same,Random blood glucose (mM) D19,"[4]; db/db mice, 10 nmol/kg s.c. once every three days, D19",15.5 ± 4.6 mM
same,Random blood glucose (mM) D22,"[4]; db/db mice, 10 nmol/kg s.c. once every three days, D22",15.6 ± 6.1 mM
same,Random blood glucose (mM) D25,"[4]; db/db mice, 10 nmol/kg s.c. once every three days, D25",14.2±5.1^a mM
same,Random blood glucose (mM) 6 h,"[4]; db/db mice, 10 nmol/kg s.c., 6 h",15.9 ± 5.9 mM
same,Random blood glucose (mM) 24 h,"[4]; db/db mice, 10 nmol/kg s.c., 24 h",8.1 ± 4.5 mM
same,Random blood glucose (mM) 48 h,"[4]; db/db mice, 10 nmol/kg s.c., 48 h",11.1 ± 6.2 mM
same,time at which blood glucose levels reached the lowest level,"[4]; db/db mice, 10 nmol/kg, after administration",about 24 hours
same,blood glucose lowering after long-term administration compared with LY3298176,"[4]; db/db mice, long-term repeated administration",not inferior to the positive control LY3298176
same,blood glucose reducing effect after administration compared with LY3298176,"[4]; db/db mice, same dose 10 nmol/kg",slightly better than the positive control LY3298176
same,blood glucose level after long-term administration,[4]; type II diabetes model db/db mice,significantly improve the blood glucose level
same,Cumulative food intake (g/pcs) D7,[5]; [6],8.7 g/pcs
same,Weight gain rate (%) D7,[5]; [6],-14.9±3.8%
same,Cumulative food intake (g/pcs) D10,[5]; [7],11.4 g/pcs
same,Weight gain rate (%) D10,[5]; [7],-20.9±4.0%
same,Cumulative food intake (g/each) D13,[5]; [8],14.4 g/each
same,Weight gain rate (%) D13,[5]; [8],-24.7±5.5%
same,Cumulative food intake (g/each) D16,[5]; [9],19.1 g/each
same,Weight gain rate (%) D16,[5]; [9],-26.6±5.6%
same,Cumulative food intake (g/each) D19,[5]; [10],24.7 g/each
same,Weight gain rate (%) D19,[5]; [10],-27.7±5.5%
same,Cumulative food intake (g/each) D22,[5]; [11],30.6 g/each
same,Weight gain rate (%) D22,[5]; [11],-28.9±6.4%
same,Cumulative food intake (g/each) D25,[5]; [12],36.7 g/each
same,Weight gain rate (%) D25,[5]; [12],-31.2±6.9%
same,Cumulative food intake (g/each) D28,[5]; [13],43.7 g/each
same,Weight gain rate (%) D28,[5]; [13],-30.4±5.2%
same,Cumulative food intake (g/each) D30,"[5]; 10 nmol/kg s.c. once every 3 days, D30",47.5^a g/each
same,Weight gain rate (%) D31,"[5]; 10 nmol/kg s.c. once every 3 days, D31",-30.2±4.9^a %
same,Cumulative food intake (g/pcs) D0,"[5]; 10 nmol/kg s.c., D0",2.4 g/pcs
same,Weight gain rate (%) D0,"[5]; 10 nmol/kg s.c., D0",0.0±0.0%
same,Cumulative food intake (g/pcs) D1,"[5]; 10 nmol/kg s.c., D1",2.8 g/pcs
same,Weight gain rate (%) D1,"[5]; 10 nmol/kg s.c., D1",-5.5±0.7%
same,Cumulative food intake (g/pcs) D2,"[5]; 10 nmol/kg s.c., D2",3.6 g/pcs
same,Weight gain rate (%) D2,"[5]; 10 nmol/kg s.c., D2",-7.7±1.9%
same,Cumulative food intake (g/pcs) D3,"[5]; 10 nmol/kg s.c., D3",4.7 g/pcs
same,Weight gain rate (%) D3,"[5]; 10 nmol/kg s.c., D3",-8.4±0.9%
same,Cumulative food intake (g/pcs) D4,"[5]; 10 nmol/kg s.c., D4",6.3 g/pcs
same,Weight gain rate (%) D4,"[5]; 10 nmol/kg s.c., D4",-7.1±3.5%
same,liver function and blood lipids of DIO mice,[5]; [14],significantly improved the liver function and blood lipids
same,weight loss and food intake inhibition effects compared with Semaglutide,[5]; [14],superior to the positive drug Semaglutide
same,food intake inhibition effect compared with LY3298176,[5]; [15],comparable to those of the same dose of the positive drug LY3298176
same,weight loss effect compared with LY3298176,[5]; [15],comparable to those of the same dose of the positive drug LY3298176
same,Liver index/%,[5]; [16],2.7±0.0^a %
same,Liver/g,[5]; [16],0.9±0.1^a g
same,Weight/g,[5]; [16],31.5±3.2^a g
same,ALT (U/L),[5]; [17],29.1±5.8^a U/L
same,AST (U/L),[5]; [17],112.0±20.9^a U/L
same,CHOL (mmol/L),[5]; [17],3.2±0.5^a mmol/L
same,TRIGL (mmol/L),[5]; [17],0.6±0.1^a mmol/L
